Patent publication US20130202653A1, “3-ARYL-3-HYDROXY-2-AMINO-PROPIONIC ACID AMIDES, 3-HETEROARYL-3-HYDROXY-2-AMINOPROPIONIC ACID AMIDES AND RELATED COMPOUNDS HAVING ANALGESIC AND/OR IMMUNO STIMULANT ACTIVITY” (Allergan, Inc., priority 2005, published 2013)
Structures can show the parent of a compound that is named as a salt.

Key:
[1] = tested on: tactile allodynia in the rat Chung model; test: Chung model: reversal of tactile allodynia (von Frey hairs) after spinal nerve ligation; assay type: in vivo; settings: Rattus norvegicus, 1 h, peak at 60 min post dose, read-out: Peak % Pain reversal: time post dose
Source text: An art-accepted model or assay for measuring an analgesic effect of a compound in chronic pain (in particular peripheral neuropathy) is the model known as Kim and Chung 1992, Pain […], pp 355-363 (Chung model). This model involves the surgical ligation of the L5 (and optionally the L6) spinal nerves on one side in experimental animals. Rats recovering from the surgery gain weight and display a level of general activity similar to that of normal rats. However, these rats develop abnormalities of the foot, wherein the hindpaw is moderately everted and the toes are held together. More importantly, the hindpaw on the side affected by the surgery appears to become sensitive to low-threshold mechanical stimuli and will perceive pain instead of the faint sensation of touch. This sensitivity to normally non-painful touch, called “tactile allodynia”, develops within the first week after surgery and lasts for at least two months. The allodynia response includes lifting the affected hindpaw to escape from the stimulus, licking the paw and holding it in the air for many seconds. None of these responses is normally seen in the control group.
To produce the tactile allodynia, rats are anesthetized before surgery. The surgical site is shaved and prepared either with betadine or Novacaine. Incision is made from the thoracic vertebra X111 down toward the sacrum. Muscle tissue is separated from the spinal vertebra (left side) at the L4-S2 levels. The L6 vertebra is located and the transverse process is carefully removed with a small rongeur to expose the L4-L6 spinal nerves. The L5 and L6 spinal nerves are isolated and tightly ligated with 6-0 silk thread. The same procedure is done on the right side as a control, except no ligation of the spinal nerves is performed.
After a complete hemostasis is confirmed, the wounds are sutured. A small amount of antibiotic ointment is applied to the incised area, and the rat is transferred to the recovery plastic cage under a regulated heat-temperature lamp.
On the day of the experiment, at least seven days after the surgery, typically six rats per test group are administered the test drugs by intraperitoneal (i.p.) injection or oral gavage (p.o.). For i.p. administration, the compounds are formulated in H2O and given in a volume of 1 ml/kg body weight by injecting into the intraperitoneal cavity. For p.o. administration, the compounds are formulated in H2O and given in a volume of 1 ml/kg body weight using an 18-gauge, 3 inch gavage needle that is slowly inserted through the esophagus into the stomach.
Tactile allodynia is assessed via von Frey hairs, which are a series of fine hairs with incremental differences in stiffness. Rats are placed in a plastic cage with a wire mesh bottom and allowed to acclimate for approximately 30 minutes. To establish the pre-drug baseline, the von Frey hairs are applied perpendicularly through the mesh to the mid-plantar region of the rats' hindpaw with sufficient force to cause slight buckling and held for 6-8 seconds. The applied force has been calculated to range from 0.41 to 15.1 grams. If the paw is sharply withdrawn, it is considered a positive response. A normal animal will not respond to stimuli in this range, but a surgically ligated paw will be withdrawn in response to a 1-2 gram hair. The 50% paw withdrawal threshold is determined using the method of Dixon, W. J., Ann. Rev. Pharmacol. Toxicol. 20:441-462 (1980) hereby incorporated by reference. Tactile allodynia is measured prior to and 15, 30, and 60 minutes after drug administration. The post-drug threshold is compared to the pre-drug threshold and the percent reversal of tactile sensitivity is calculated based on a normal threshold of 15.1 grams.
Table 1 below indicates the degree of pain reversal obtained in the Chung model with exemplary compounds of the invention. […]

spleen size = test: Immunostimulation: splenic size after systemic administration; assay type: in vivo; settings: animals dosed at 200 mg/kg; rats
Source text: An art accepted method for measuring immuno stimulation comprises systemic administration of compounds to assay for the ability to stimulate the immune system, possibly due to nonspecific upregulation of the hemolymphoreticular system. This upregulation could result in increased numbers of lymphocytes of both T- and B-cell lineage.

Row | SMILES | melting point | inhibition in vivo at 0.1 mg/kg ([1]; ip, 100 μg/kg IP) | inhibition in vivo at 3 mg/kg ([1]; po, 3000 μg/kg PO) | increase in spleen size (spleen size)
1 | N[C@@H](C(=O)N1CCCC1)[C@@H](O)c1cccnc1 (racemic) (as salt: hydrochloride) [Compound 20, DL-threo-2-Amino-3-hydroxy-3-(pyridin-3-yl)-1-(pyrrolidin-1-yl)propan-1-one dihydrochloride] | 159.6 °C |  |  | 
2 | N[C@@H](C(=O)N1CCCC1)[C@@H](O)c1ccncc1 (racemic) [Compound 22, DL-threo-2-Amino-3-hydroxy-3-(pyridin-4-yl)-1-(pyrrolidin-1-yl)propan-1-one dihydrochloride] |  | 100% | 100% | twentyfive
